Holding throughout (type): cell-based
One assay concerns HNT-34 cells. The assay can be described thus: CTG method, inhibition of HNT-34 cell proliferation. The conditions noted are these: HNT-34, 72 hours; read-out: Cellular proliferation inhibition IC50. As to the method: (§1) Test Example 2: CTG Method for Detecting the Inhibitory Effect of Compounds of Formula on the Proliferation of HNT 34 or HL-60 Cells
(§2) HNT-34 or HL-60 cells were taken and cultured in RPMI1640 medium containing 20% fetal bovine serum. The cells were inoculated on a 96 well plate, with 1×10^4 cells per well, and incubated at 37° C. in a […] incubator. After adding the test compound, it was incubated for 72 hours. Then an appropriate amount of CTG reagent was added, the luminescence value was measured, and the inhibition rate was calculated.

In a further assay the target is T1, GSPT1 protein (Homo sapiens, UniProt P15170+Q96SW2).
T1 construct: endogenous in cells; host or cells: Jeko-1
The assay can be described thus: Western blot detection of degradation activity of GSPT1 protein in Jeko-1 cells. The note with it: JeKo-1, 24 h, read-out: GSPT1 degradation rate (%). As to the method:
Test Example 1: Western Blot Detection of Degradation Activity of GSPT1 Protein by the Compounds
Cell line: Jeko-1 cell line was cultured with an RPMI1640 media containing 20% fetal bovine serum in an incubator at 37° C., 5% CO2, and saturated humidity.
DMSO control group and test compound (concentration shown in the table below) were set up, after processing for 24 hours, the cells were collected, pre-cooled cell lysate was added and left on ice for 10 minutes. The total protein of the cells was extracted, and the protein concentration was measured and quantified using the BCA method. Routine gel preparation, sample loading, electrophoresis were conducted, then the membrane was transferred, and sealed, wherein the primary antibody was diluted with a blocking solution at 1:500-5000. The membrane was immersed in the diluted primary antibody and incubated overnight at 4° C. After rinsing, the secondary antibody was diluted with a sealing solution at 1:10000-20000, the membrane was immersed in the diluted secondary antibody, and incubated at room temperature for 45 minutes. After rinsing, the results were tested on ODYSSEY (Li-COR). GAPDH was used as an internal reference control.
Image J software was used to perform gray level analysis on each band and the degradation rate of GSPT1 protein by the compounds was calculated.
(In general: In western blotting, separated proteins are transferred to a membrane and probed.)

Another assay concerns HL-60 cells. As to the kind of experiment: CTG method, inhibition of HL-60 cell proliferation. The conditions noted are these: Homo sapiens; HL-60, 72 hours; read-out: Cellular proliferation inhibition IC50. As to the method: as §1, §2

Where two headings read alike, the source gives them in different places.

T1 sequence (P15170 whole entry): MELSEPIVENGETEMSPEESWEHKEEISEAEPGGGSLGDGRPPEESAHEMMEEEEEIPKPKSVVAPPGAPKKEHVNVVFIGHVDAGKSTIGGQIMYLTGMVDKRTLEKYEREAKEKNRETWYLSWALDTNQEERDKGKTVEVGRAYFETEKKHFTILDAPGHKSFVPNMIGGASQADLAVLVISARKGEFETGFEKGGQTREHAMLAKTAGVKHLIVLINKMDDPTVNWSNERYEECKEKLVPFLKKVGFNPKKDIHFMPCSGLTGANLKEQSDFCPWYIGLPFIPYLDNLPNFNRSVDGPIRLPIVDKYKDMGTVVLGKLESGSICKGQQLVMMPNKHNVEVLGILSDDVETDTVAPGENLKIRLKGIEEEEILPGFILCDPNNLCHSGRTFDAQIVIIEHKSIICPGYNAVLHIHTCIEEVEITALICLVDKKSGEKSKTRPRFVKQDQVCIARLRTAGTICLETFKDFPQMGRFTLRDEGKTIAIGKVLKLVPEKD
T1 sequence (Q96SW2 whole entry): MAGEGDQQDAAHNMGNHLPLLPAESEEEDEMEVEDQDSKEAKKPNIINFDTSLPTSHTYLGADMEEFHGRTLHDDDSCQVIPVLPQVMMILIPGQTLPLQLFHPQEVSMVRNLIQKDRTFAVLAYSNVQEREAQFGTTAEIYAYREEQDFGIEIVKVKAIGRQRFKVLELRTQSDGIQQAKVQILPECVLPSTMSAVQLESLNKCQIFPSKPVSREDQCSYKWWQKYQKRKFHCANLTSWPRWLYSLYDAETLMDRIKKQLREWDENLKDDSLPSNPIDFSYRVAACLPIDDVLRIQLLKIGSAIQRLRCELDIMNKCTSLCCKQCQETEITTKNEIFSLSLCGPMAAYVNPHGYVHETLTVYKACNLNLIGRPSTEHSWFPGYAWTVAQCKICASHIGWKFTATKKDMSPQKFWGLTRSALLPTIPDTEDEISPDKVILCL
T1 sequence (Q16531 whole entry partner): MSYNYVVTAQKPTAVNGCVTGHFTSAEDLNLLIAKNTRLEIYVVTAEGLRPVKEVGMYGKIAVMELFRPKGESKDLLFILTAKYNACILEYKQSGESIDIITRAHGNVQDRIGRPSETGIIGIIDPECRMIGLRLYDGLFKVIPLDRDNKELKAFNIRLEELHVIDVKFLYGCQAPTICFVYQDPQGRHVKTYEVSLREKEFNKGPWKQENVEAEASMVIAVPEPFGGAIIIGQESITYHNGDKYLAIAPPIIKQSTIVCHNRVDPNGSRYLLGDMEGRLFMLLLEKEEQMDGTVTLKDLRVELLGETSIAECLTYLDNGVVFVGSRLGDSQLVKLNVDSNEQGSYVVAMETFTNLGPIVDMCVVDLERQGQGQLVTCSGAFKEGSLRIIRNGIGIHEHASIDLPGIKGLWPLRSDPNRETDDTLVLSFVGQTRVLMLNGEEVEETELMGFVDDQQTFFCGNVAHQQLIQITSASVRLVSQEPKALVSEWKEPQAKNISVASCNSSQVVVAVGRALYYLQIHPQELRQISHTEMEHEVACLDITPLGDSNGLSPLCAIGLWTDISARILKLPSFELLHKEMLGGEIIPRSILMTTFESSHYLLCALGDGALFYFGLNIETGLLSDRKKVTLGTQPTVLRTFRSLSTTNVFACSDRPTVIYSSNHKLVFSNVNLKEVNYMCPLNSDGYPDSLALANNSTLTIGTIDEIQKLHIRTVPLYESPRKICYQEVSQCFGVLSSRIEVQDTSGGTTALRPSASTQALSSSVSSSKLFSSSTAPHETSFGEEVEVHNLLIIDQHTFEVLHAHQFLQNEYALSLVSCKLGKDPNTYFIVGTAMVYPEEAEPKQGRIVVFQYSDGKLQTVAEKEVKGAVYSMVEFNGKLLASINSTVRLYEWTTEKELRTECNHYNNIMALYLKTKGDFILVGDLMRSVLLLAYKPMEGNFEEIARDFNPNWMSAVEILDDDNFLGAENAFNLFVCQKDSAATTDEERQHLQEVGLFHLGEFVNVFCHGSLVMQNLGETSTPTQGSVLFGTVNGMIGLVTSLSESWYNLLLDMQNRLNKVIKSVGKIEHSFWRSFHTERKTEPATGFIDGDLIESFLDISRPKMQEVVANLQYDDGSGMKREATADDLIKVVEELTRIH

Take `CCN(C(=O)OC(C)(C)C)[C@H](C(=O)NCc1ccc2c(c1)CN(C1CCC(=O)NC1=O)C2=O)c1ccccc1` (stereo partly drawn) [Compound 1-89, Tert butyl ((1S)-2-((2-(2,6-dioxypiperidin-3-yl)-1-oxoisoindoline-5-yl)methyl)amino)-2-oxo-1-phenylethy 1) (ethyl) carbamate]: the figures for the IC50 with HNT-34 cells and with HL-60 cells were 3.8 nM and 5 nM, respectively. For the same molecule, at GSPT1 protein (100 nM, Jeko-1 cells, 24 hours), the inhibition at 0.1 µM amounted to 97.8%. Besides, on GSPT1 protein (10 μM, Jeko-1 cells, 24 hours), the inhibition at 10 µM was 98.7%.
Taken in the same sequence, the figures for `CC(C)C[C@@H](NC(=O)OC(C)(C)C)C(=O)NCc1ccc2c(c1)CN(C1CCC(=O)NC1=O)C2=O` (stereo partly drawn) [Compound 4-123, Tert butyl ((2R)-1-((2-(2,6-dioxypiperidin-3-yl)-1-oxoidoline-5-yl)methyl)amino)-4-methyl-1-oxolan-2-yl) carbamate] were 26.9 nM, 28.9 nM, 79.9% and 92.7%.
Taken in the same sequence, the figures for `CC(C)(C)OC(=O)N[C@H](C(=O)NCc1ccc2c(c1)CN(C1CCC(=O)NC1=O)C2=O)c1ccc2ccccc2c1` (stereo partly drawn) [Compound 4-133, tert butyl ((1S)-2-((2-(2,6-dioxypiperidin-3-yl)-1-oxoisoidoline-5-yl)methyl)amino)-1-(naphthalene-2-yl)-2-oxoethyl) carbamate] were 3.2 nM, 14.3 nM, 79% and 86%.
With `CN(C(=O)OC(C)(C)C)[C@H](C(=O)NCc1ccc2c(c1)CN(C1CCC(=O)NC1=O)C2=O)c1ccccc1` (stereo partly drawn) [Compound 4-135, Tert butyl ((1S)-2-((2-(2,6-dioxypiperidin-3-yl)-1-oxoisoindoline-5-yl)methyl)amino)-2-oxo-1-phenylethy 1) (methyl) carbamate], the IC50 in the assay with HNT-34 cells was determined as 6.2 nM; in the assay with HL-60 cells, 14.3 nM. The inhibition at 0.1 µM at GSPT1 protein (100 nM, Jeko-1 cells, 24 hours) stood at 80%. Moreover, the inhibition at 10 µM on GSPT1 protein (10 μM, Jeko-1 cells, 24 hours) is 93%.
For `Cc1ccc([C@H](NC(=O)OC(C)(C)C)C(=O)NCc2ccc3c(c2)CN(C2CCC(=O)NC2=O)C3=O)cc1` (stereo partly drawn) [Compound 4-166, Tert butyl ((1S)-2-((2-(2,6-dioxypiperidin-3-yl)-1-oxoisoindoline-5-yl)methyl)amino)-2-oxo-1-(p-tolyl) ethyl) carbamate], the IC50 with HNT-34 cells is 11.3 nM; in the assay on HL-60 cells it was 12.8 nM. In addition, on GSPT1 protein (100 nM, Jeko-1 cells, 24 hours), the inhibition at 0.1 µM is 82%. In addition, the inhibition at 10 µM at GSPT1 protein (10 μM, Jeko-1 cells, 24 hours) came out at 93%.
On to `CC(C)(C)OC(=O)NC(C(=O)NCc1ccc2c(c1)CN(C1CCC(=O)NC1=O)C2=O)c1ccccc1Cl` (stereo not shown) [Compound 4-200, Tert butyl (1-(2-chlorophenyl)-2-((2-(2,6-dioxypiperidin-3-yl)-1-oxoisoindoline-5-yl)methyl)amino)-2-oxoethyl) carbamate], for which the IC50 with HNT-34 cells came to 3.2 nM; in the assay on HL-60 cells, 8.3 nM. Also, at GSPT1 protein (100 nM, Jeko-1 cells, 24 hours), the inhibition at 0.1 µM was 99%. Also, the inhibition at 10 µM at GSPT1 protein (10 μM, Jeko-1 cells, 24 hours) turned out to be 100%.
For the molecule `CC(C)(C)OC(=O)N[C@H](C(=O)NCc1ccc2c(c1)CN(C1CCC(=O)NC1=O)C2=O)c1ccc(Br)cc1` (stereo partly drawn) [Compound 5-7, Tert butyl ((1S)-1-(4-bromophenyl)-2-((2-(2,6-dioxopyridin-3-yl)-1-oxoisoidoline-5-yl)methyl)amino)-2-oxoethyl) carbamate], the IC50 in the assay on HNT-34 cells amounted to 8.7 nM; in the assay with HL-60 cells, 12.4 nM. Also, on GSPT1 protein (100 nM, Jeko-1 cells, 24 hours), the inhibition at 0.1 µM was 94%. In addition, the inhibition at 10 µM at GSPT1 protein (10 μM, Jeko-1 cells, 24 hours) amounted to 100%.
Turning to `O=C1CCC(N2Cc3cc(CNC(=O)C(CNC(=O)Oc4ccccc4)c4ccccc4)ccc3C2=O)C(=O)N1` (stereo not shown) [Compound 5-10, Phenyl (3-((2-(2,6-dioxypiperidin-3-yl)-1-oxoisoindolin-5-yl)methyl)amino)-3-oxo-2-phenylpropyl) carbamate], the IC50 in the assay on HNT-34 cells amounted to 36.9 nM; in the assay on HL-60 cells, 37.7 nM. Moreover, the inhibition at 0.1 µM on GSPT1 protein turned out to be 73%. The inhibition at 10 µM at GSPT1 protein is 90%.
On to `CN(C(=O)OC(C)(C)C)[C@@H](C(=O)NCc1ccc2c(c1)CN(C1CCC(=O)NC1=O)C2=O)c1ccccc1` (stereo partly drawn) [Compound 5-31, Tert butyl ((1R)-2-((2-(2,6-dioxypiperidin-3-yl)-1-oxoisoindoline-5-yl)methyl)amino)-2-oxo-1-phenylethy 1) (methyl) carbamate], for which the IC50 in the assay on HNT-34 cells turned out to be 6.6 nM; in the assay with HL-60 cells, 12.5 nM. The inhibition at 0.1 µM on GSPT1 protein (100 nM, Jeko-1 cells, 24 hours) came out at 84%. Also, the inhibition at 10 µM on GSPT1 protein (10 μM, Jeko-1 cells, 24 hours) is 99%.
Take `CC(C)CC(CNC(=O)OC(C)(C)C)C(=O)NCc1ccc2c(c1)CN(C1CCC(=O)NC1=O)C2=O` (stereo not shown) [Compound 5-33]: the IC50 in the assay on HNT-34 cells was 32.7 nM; with HL-60 cells, 35.4 nM. Besides, the inhibition at 0.1 µM on GSPT1 protein (100 nM, Jeko-1 cells, 24 hours) stood at 52%. The inhibition at 10 µM at GSPT1 protein (10 μM, Jeko-1 cells, 24 hours) came to 80%.
As for `CN(C(=O)CC1CCCC1)[C@H](C(=O)NCc1ccc2c(c1)CN(C1CCC(=O)NC1=O)C2=O)c1ccccc1` (stereo partly shown) [Compound 5-50], the IC50 with HNT-34 cells was 5.8 nM; in the assay with HL-60 cells, 6.9 nM. Besides, the inhibition at 0.1 µM on GSPT1 protein (100 nM, Jeko-1 cells, 24 hours) came out at 94.9%. On GSPT1 protein (10 μM, Jeko-1 cells, 24 hours), the inhibition at 10 µM was 96.9%.
On to `CC(C)(C)OC(=O)N[C@H](C(=O)NCc1ccc2c(c1)CN(C1CCC(=O)NC1=O)C2=O)C1CCCCC1` (stereo partly drawn) [Compound 5-56, Tert butyl ((1S)-1-cyclohexyl-2-((2-(2,6-dioxopyridin-3-yl)-1-oxoisoidoline-5-yl)methyl)amino)-2-oxoethyl) carbamate], for which the results for the IC50 in the assay with HNT-34 cells and in the assay with HL-60 cells were 18 nM and 25.8 nM, respectively. Further, on GSPT1 protein (100 nM, Jeko-1 cells, 24 hours), the inhibition at 0.1 µM worked out at 18.8%. Moreover, at GSPT1 protein (10 μM, Jeko-1 cells, 24 hours), the inhibition at 10 µM amounted to 84.1%.
Taken in the same sequence, the figures for `CC(C)(C)OC(=O)N[C@H](C(=O)NCc1ccc2c(c1)CN(C1CCC(=O)NC1=O)C2=O)C1CCCC1` (stereo partly drawn) [Compound 5-57, Tert butyl ((1S)-1-cyclopentyl-2-((2-(2,6-dioxopyridin-3-yl)-1-oxoisoidoline-5-yl)methyl)amino)-2-oxoethyl) carbamate] were 7.5 nM, 15 nM, 75% and 98.1%.
As to `O=C1CCC(N2Cc3cc(CNC(=O)[C@H](CC4CCCCC4)NC(=O)CC4CCCC4)ccc3C2=O)C(=O)N1` (stereo partly drawn) [Compound 5-92, (2S)-3-cyclohexyl-2-(2-cyclopentylacetamido)-N-((2-(2,6-dioxypiperidin-3-yl)-1-oxoisoindoline-5-yl)methyl) propionamide], the IC50 with HNT-34 cells and with HL-60 cells was 25.2 nM throughout. For the same molecule, at GSPT1 protein (100 nM, Jeko-1 cells, 24 hours), the inhibition at 0.1 µM amounted to 79%. For the same molecule, the inhibition at 10 µM on GSPT1 protein (10 μM, Jeko-1 cells, 24 hours) came out at 97%.
Take `CC(C)OC(=O)N[C@@H](CC1CCCCC1)C(=O)NCc1ccc2c(c1)CN(C1CCC(=O)NC1=O)C2=O` (stereo partly drawn) [Compound 5-94, Isopropyl ((2S)-3-cyclohexyl-1-((2-(2,6-dioxypiperidin-3-yl)-1-oxoisoindolin-5-yl)methyl)amino)-1-oxopropan-2-yl) carbamate]: the IC50 with HNT-34 cells worked out at 7.4 nM. Also, at GSPT1 protein, the inhibition at 0.1 µM turned out to be 85% and the inhibition at 10 µM was determined as 95%. For the same molecule, the IC50 in the assay with HL-60 cells was determined as 12.8 nM.
As to `CC[C@H](C)[C@@H](CC(=O)NCc1ccc2c(c1)CN(C1CCC(=O)NC1=O)C2=O)NC(=O)OC(C)(C)C` (stereo partly drawn) [Compound 5-97, Tert butyl ((3R,4S)-1-((2-(2,6-dioxypiperidin-3-yl)-1-oxoisoidoline-5-yl)methyl)amino)-4-methyl-1-oxohexane-3-yl) carbamate], the figures for the IC50 in the assay with HNT-34 cells and with HL-60 cells were 6.9 nM and 11 nM, respectively. The inhibition at 0.1 µM at GSPT1 protein (100 nM, Jeko-1 cells, 24 hours) is 97%. In addition, the inhibition at 10 µM at GSPT1 protein (10 μM, Jeko-1 cells, 24 hours) was 98%.

For the origin of these results see patent US20250214960A1, “COMPOUNDS HAVING ACTIVITY OF DEGRADING GSPT1 AND APPLICATION THEREOF” (SHANGHAI MEIZER PHARMACEUTICALS CO., LTD., priority 2021, published 2025).
